This experiment addresses T1, motilin receptors located on the colon of mature rabbits (Oryctolagus cuniculus, UniProt G1T803).
T1 construct: The colon from mature New Zealand rabbits was removed, dissected free from the mucosa and serosa layers, and diced into small pieces; from tissue; host or cells: colon smooth muscle of mature New Zealand rabbits, crude membrane homogenate
Briefly: competition with radiolabeled (125I) porcine motilin for the motilin receptors of rabbit colon. The class given is binding. The following applies: for IC50: rabbit colon, 125I motilin. Here is the method: The compounds of the invention were tested for their ability to compete with radiolabeled motilin (porcine) for the motilin receptors located on the colon of mature rabbits. The colon from mature New Zealand rabbits was removed, dissected free from the mucosa and serosa layers, and diced into small pieces. […] The homogenate was centrifuged at 1000×g for 15 min. and the supernatant discarded. The pellet was washed twice before being suspended in homogenizing buffer. This crude homogenate is then passed first through a 19 gauge needle then a 23 gauge needle to further suspend the material and stored as -80° C. […] After 30 min, at 30° C., the material was cooled on ice and centrifuged at 13,000×g for 1 minute. The pellet was washed with 1 mL 0.9% saline and centrifuged at 13,000×g for 15 seconds. The pellet was washed again with cold saline and the supernatant was removed. The pellet was counted in the gamma counter to determine the percentage of […] motilin and thereby the percent inhibition of the test compound. IC50s were determined for some compounds by standard techniques.

Each structure is given as a SMILES string. Where two headings read alike, the source gives them in different places.

T1 sequence (G1T803 1-400): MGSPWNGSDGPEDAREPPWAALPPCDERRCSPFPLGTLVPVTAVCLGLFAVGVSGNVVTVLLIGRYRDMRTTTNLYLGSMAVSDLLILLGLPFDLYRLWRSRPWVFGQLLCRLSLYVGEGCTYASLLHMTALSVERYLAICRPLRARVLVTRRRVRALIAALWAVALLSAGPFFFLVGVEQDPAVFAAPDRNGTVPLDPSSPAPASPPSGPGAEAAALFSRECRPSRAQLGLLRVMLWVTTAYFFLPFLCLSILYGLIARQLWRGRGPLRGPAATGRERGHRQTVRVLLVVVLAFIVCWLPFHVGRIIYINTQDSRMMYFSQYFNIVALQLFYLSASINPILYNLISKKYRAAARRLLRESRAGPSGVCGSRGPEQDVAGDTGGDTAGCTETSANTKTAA

For orientation: inhibition means how much of the control response was suppressed. Read a high inhibition as a response far below the control. In turn, `O=C(NC1(Cc2ccccc2)C=C(CNc2cccc(OCCN3CCOCC3)c2)CC1)C(F)(F)F` (stereo not shown) [Compound 131] gave an inhibition at 10 µM of 25%. Turning to `CCN(CC)CCN(CCc1ccc(O)cc1)CC1=CC(Cc2ccccc2)(NC(=O)C(Cl)(Cl)Cl)CC1` (stereo not shown) [Compound 76], at 10 µM the inhibition was 84%. `COc1cccc(C(=O)N(CC2=CC(Cc3ccccc3)(NC(=O)C(Cl)(Cl)Cl)CC2)c2cccc(OCCN3CCOCC3)c2)c1` (stereo not shown) [Compound 90]: under “@ 0.5 μM”, at 0.5 µM the inhibition was 65%.

`CCN(CC)CCN(CC1=CC(Cc2ccccc2)(NC(=O)C(Cl)(Cl)Cl)CC1)c1ccc(O)cc1` (stereo not shown) [Compound 74] registered an inhibition at 10 µM of 81%. Broadly, the IC50 is the point on the concentration scale where inhibition reaches its midpoint. For `CC(=O)N(CC1=CC(Cc2ccccc2)(NC(=O)C(Cl)(Cl)Cl)CC1)c1cccc(OCCN2CCOCC2)c1` (stereo not shown) [Compound 78], the IC50 (read-out: IC50 (unit inferred)) came out at 1030 nM. In the case of `O=C(c1ccc(Br)cc1)N(CC1=CC(Cc2cccc(Cl)c2)(NC(=O)C(Cl)(Cl)Cl)CC1)c1cccc(OCCN2CCOCC2)c1` (stereo not shown) [Compound 129], the inhibition at 0.1 µM worked out at 70%. On the same count and under the same terms, as for `O=C(c1ccc([N+](=O)[O-])cc1)N(CC1=CC(Cc2ccccc2)(NC(=O)C(Cl)(Cl)Cl)CC1)c1cccc(OCCN2CCOCC2)c1` (stereo not shown) [Compound 116], the figure is 69%. Compound `CCOC(=O)COc1cccc(N(CC2=CC(Cc3ccccc3)(NC(=O)C(Cl)(Cl)Cl)CC2)C(=O)c2ccccc2)c1` (stereo not shown) [Compound 46] gave an inhibition at 10 µM of 51%. `O=C(Nc1ccccc1)N(CC1=CC(NC(=O)C(Cl)(Cl)Cl)(c2ccccc2)CC1)c1cccc(OCCN2CCOCC2)c1` (stereo not shown) [Compound 127]: at 0.1 µM the inhibition was 33%.

`O=C(Nc1ccccc1)N(CC1=CC(Cc2ccccc2)(NC(=O)C(F)(F)F)CC1)c1cccc(OCCN2CCOCC2)c1` (stereo not shown) [Compound 134] came in with an inhibition at 1 µM of 69%. The compound `CCN(CC)CCOc1cccc(CN(CC2=CC(Cc3ccccc3)(NC(=O)C(Cl)(Cl)Cl)CC2)C(=O)c2ccccc2)c1` (stereo not shown) [Compound 83] showed an inhibition at 10 µM of 100%. In turn, `O=C(c1cccs1)N(CC1=CC(Cc2ccccc2)(NC(=O)C(Cl)(Cl)Cl)CC1)c1cccc(OCCN2CCOCC2)c1` (stereo not shown) [Compound 108] registered an inhibition at 1 µM of 84%. Same read-out and setting: as for `CC(C)C1(NC(=O)C(Cl)(Cl)Cl)C=C(CN(C(=O)Nc2ccccc2)c2cccc(OCCN3CCOCC3)c2)CC1` (stereo not shown) [Compound 123], the figure is 51%. For `O=C(c1ccc(Cl)cc1)N(CC1=CC(Cc2ccccc2)(NC(=O)C(Cl)(Cl)Cl)CC1)c1cccc(OCCN2CCOCC2)c1` (stereo not shown) [Compound 102], at 0.1 µM the inhibition was 61%. In turn, `COc1ccc(N(CCN2CCOCC2)CC2=CC(Cc3ccccc3)(NC(=O)C(Cl)(Cl)Cl)CC2)cc1OCCN1CCOCC1` (stereo not shown) [Compound 40] came in with an inhibition at 10 µM of 27%.

`O=C(Oc1cccc(CCN(CCN2CCOCC2)CC2=CC(Cc3ccccc3)(NC(=O)C(Cl)(Cl)Cl)CC2)c1)c1ccccc1` (stereo not shown) [Compound 85] registered an inhibition at 2 µM (@ 2.0 μM) of 9%. Turning to `CCN(CC)CCN(CCc1cccc(OCCN2CCOCC2)c1)CC1=CC(Cc2ccccc2)(NC(=O)C(Cl)(Cl)Cl)CC1` (stereo not shown) [Compound 92], the inhibition at 10 µM was determined as 95%. As to `O=C(c1ccc(C(F)(F)F)cc1)N(CC1=CC(Cc2ccccc2)(NC(=O)C(Cl)(Cl)Cl)CC1)c1cccc(OCCN2CCOCC2)c1` (stereo not shown) [Compound 104], testing at 0.1 µM gave an inhibition of 29%. The compound `O=C(NC1(Cc2ccccc2)C=C(CNc2ccc(O)cc2)CC1)C(Cl)(Cl)Cl` (stereo not shown) [Compound 69] yielded an inhibition at 10 µM of 11%. `CC(=O)NC1(Cc2ccccc2)C=C(CN(C(=O)c2ccc(F)cc2)c2cccc(OCCN3CCOCC3)c2)CC1` (stereo not shown) [Compound 133] returned an inhibition at 1 µM of 51%.

Consider `O=C(c1ccc(Br)cc1)N(CC1=CC(Cc2ccccc2)(NC(=O)C(Cl)(Cl)Cl)CC1)c1cccc(OCC[N+]2([O-])CCOCC2)c1` (stereo not shown) [Compound 137], for which at 1 µM the inhibition was 50%.

On to `O=C(NC1(Cc2ccccc2)C=C(CN(Cc2ccccc2)Cc2cccc(OCCN3CCOCC3)c2)CC1)C(Cl)(Cl)Cl` (stereo not shown) [Compound 88], for which at 10 µM the inhibition was 94%.

In the case of `O=C(c1ccccc1)N(CC1=CC(Cc2ccccc2)(NC(=O)C(Cl)(Cl)Cl)CC1)Cc1cccc(OCCN2CCOCC2)c1` (stereo not shown) [Compound 32], testing at 10 µM gave an inhibition of 70%. As for `O=C(c1ccc(Cl)c(Cl)c1)N(CC1=CC(Cc2ccccc2)(NC(=O)C(Cl)(Cl)Cl)CC1)c1cccc(OCCN2CCOCC2)c1` (stereo not shown) [Compound 97], the IC50 (read-out: IC50) was 260 nM. `CCN(CC)CCSc1cccc(N(CC2=CC(Cc3ccccc3)(NC(=O)C(Cl)(Cl)Cl)CC2)C(=O)c2ccccc2)c1` (stereo not shown) [Compound 79] gave an inhibition at 10 µM of 98%. Regarding `O=C(c1ccc(F)cc1)N(CC1=CC(Cc2ccccc2)(NC(=O)C(Cl)(Cl)Cl)CC1)c1cccc(CCCN2CCOCC2)c1` (stereo not shown) [Compound 98], testing at 1 µM gave an inhibition of 17%. The compound `O=C(Nc1ccccc1)N(CC1=CC(Cc2ccccc2)(NC(=O)C(Cl)(Cl)Cl)CC1)c1cccc(SCCN2CCOCC2)c1` (stereo not shown) [Compound 22, 3-Benzyl-3-trichloroacetylamino-1-(N-phenylaminocarbonyl)-N-[(3-(2-morpholinoethyl)phenyl)thio]methylcyclopentene] came in with an inhibition at 10 µM of 83%.

Take `CCN(CC)CCN(CC1=CC(Cc2ccccc2)(NC(=O)C(Cl)(Cl)Cl)CC1)c1ccccc1OCCN1CCOCC1` (stereo not shown) [Compound 72]: where the note is “read-out: IC50 (unit inferred)”, the IC50 was found to be 900 nM. In turn, `CCN(CC)CCN(CC1=CC(Cc2ccccc2)(NC(=O)C(Cl)(Cl)Cl)CC1)c1ccccc1O` (stereo not shown) [Compound 73] displayed an inhibition at 10 µM of 84%. Regarding `O=C(c1ccc(Br)cc1)N(CC1=CC(Cc2ccccc2)(NC(=O)C(Cl)(Cl)Cl)CC1)c1cc(OCCN2CCOCC2)ccc1Cl` (stereo not shown) [Compound 38], the inhibition at 1 µM turned out to be 59%. The compound `O=C(c1ccc(F)cc1)N(CC1=CC(Cc2ccc(F)cc2)(NC(=O)C(Cl)(Cl)Cl)CC1)c1cccc(OCCN2CCOCC2)c1` (stereo not shown) [Compound 125] displayed an inhibition at 0.04 µM (@ 0.04 μM) of 43%. In turn, `COc1ccc(NCC2=CC(Cc3ccccc3)(NC(=O)C(Cl)(Cl)Cl)CC2)cc1OCCN1CCOCC1` (stereo not shown) [Compound 94] gave an inhibition at 10 µM of 48%. Consider `O=C(C(c1ccccc1)c1ccccc1)N(CC1=CC(Cc2ccccc2)(NC(=O)C(Cl)(Cl)Cl)CC1)c1cccc(OCCN2CCOCC2)c1` (stereo not shown) [Compound 117], for which the inhibition at 1 µM worked out at 42%. With `O=C(NC1(Cc2ccccc2)C=C(CNCCc2cccc(SCCN3CCOCC3)c2)CC1)C(Cl)(Cl)Cl` (stereo not shown) [Compound 81], 10 µM produced 81% inhibition.

Compound `O=C(Oc1ccccc1)N(CC1=CC(Cc2ccccc2)(NC(=O)C(Cl)(Cl)Cl)CC1)c1cccc(OCCN2CCOCC2)c1` (stereo not shown) [Compound 118] registered an inhibition at 1 µM of 51%. `O=C(Nc1ccc(F)cc1)N(CC1=CC(Cc2cccc(Cl)c2)(NC(=O)C(Cl)(Cl)Cl)CC1)c1cccc(OCCN2CCOCC2)c1` (stereo not shown) [Compound 120]: under “read-out: IC50”, the IC50 was 10 nM.

Regarding `O=C(NC1CCCCC1)N(CC1=CC(Cc2ccccc2)(NC(=O)C(Cl)(Cl)Cl)CC1)c1cccc(OCCN2CCOCC2)c1` (stereo not shown) [Compound 119], the inhibition at 1 µM turned out to be 56%. With `O=C(c1ccccc1)N(CC1=CC(Cc2ccccc2)(NC(=O)C(Cl)(Cl)Cl)CC1)c1cccc(SCCN2CCOCC2)c1` (stereo not shown) [Compound 82], at 10 µM the inhibition was 80%.

As to `CCN(CC)CCOc1cccc(CN(CC2=CC(Cc3ccccc3)(NC(=O)C(Cl)(Cl)Cl)CC2)C2CCN(Cc3ccccc3)CC2)c1` (stereo not shown) [Compound 77], the half-maximal inhibitory concentration (IC50) (read-out: IC50 (unit inferred)) stood at 800 nM. Compound `O=C(c1cc(C(F)(F)F)cc(C(F)(F)F)c1)N(CC1=CC(Cc2ccccc2)(NC(=O)C(Cl)(Cl)Cl)CC1)c1cccc(OCCN2CCOCC2)c1` (stereo not shown) [Compound 99] came in with an inhibition at 1 µM of 28%.

The values are drawn from patent US5972939A, “Cyclopentene derivatives useful as antagonists of the motilin receptor” (Ortho-McNeil Pharmaceutical, Inc., priority 1998, dated 1999).
